Measured values: patent US7838542B2, “Bicyclic compositions and methods for modulating a kinase cascade” (Kinex Pharmaceuticals, LLC, priority 2006, dated 2010)
Where “and” joins values, the source holds several entries; their conditions need not be identical. Equal entries are not always repeated.

Key:
Chinchillas [1] = assay: Noise-induced hearing loss, round window application (Example 8); assay type: in vivo, chinchilla; design: threshold shift, 0.5 kHz / threshold shift, 1 kHz / threshold shift, 2 kHz / threshold shift, 4 kHz / threshold shift, 8 kHz / average threshold shift, 0.5 kHz / average threshold shift, 1 kHz / average threshold shift, 2 kHz / average threshold shift, 4 kHz / average threshold shift, 8 kHz: unit not given here; conditions: for average threshold shift, 0.5 kHz / average threshold shift, 1 kHz / average threshold shift, 2 kHz / average threshold shift, 4 kHz / average threshold shift, 8 kHz: Table XIV; for threshold shift, 0.5 kHz / threshold shift, 1 kHz / threshold shift, 2 kHz / threshold shift, 4 kHz / threshold shift, 8 kHz: individual animals, listed as CH65
Description: Chinchillas (N=8) were used in studies of noise-induced hearing loss. The animals' hearing sensitivity was measured using standard electrophysical techniques before the experimental manipulation. […] Animals were anesthetized, the auditory bullae were opened, and the left and right cochleas were visualized. The round window leading to the scala tympani of the cochlea was used as the access point for drug application. […] In each case, the solution was allowed to set on the round window for 30 minutes, then the auditory bullae were closed. Subsequently, the animals were exposed to 4 kHz band noise at 105 dB SPL for four hours. Following the noise exposure, the animals' hearing was tested at day 1, day 3, day 7, and day 20 to determine evoked potential threshold shifts. Permanent threshold shift was assessed at day 20. The cochleas were harvested at day 20 to allow for morphological examination of the cochleas.

Chinchillas [2] = assay: Noise-induced hearing loss, round window application (Example 12); assay type: in vivo, chinchilla; conditions: 4 kHz band noise at 105 dB SPL, four hours, day 1, 7, 21
Description: Chinchillas (N=6) were used in studies of noise-induced hearing loss. The animals' hearing sensitivity was measured using standard electrophysical techniques before the experimental manipulation. […] Animals were anesthetized, the auditory bullae were opened, and the left and right cochleas were visualized. The round window leading to the scala tympani of the cochlea was used as the access point for drug application. […] A control solution of 3 mM DMSO in […] of saline solution was placed on the round window of the other ear. The solution was allowed to set on the round window for 30 minutes, then the auditory bullae were closed. Subsequently, the animals were exposed to 4 kHz band noise at 105 dB SPL for four hours. Following the noise exposure, the animals' hearing was tested at day 1, day 7, and day 21 to determine evoked potential threshold shifts. Permanent threshold shift was assessed at day 21.

Guinea pigs = assay: Cisplatin-induced hearing loss; assay type: in vivo, guinea pig; conditions: subcutaneous, prior to cisplatin
Description: The effects of high level noise and ototoxic drugs, such as cisplatin or the class of aminoglycosides, share several common features in the inner ear. First, the noise and/or drugs alter the free radical/antioxidant levels in the cochlea (inner ear). […] Guinea pigs (N=7) were used in studies of cisplatin-induced hearing loss. The animals' hearing sensitivity was measured using standard electrophysical techniques before the experimental manipulation. […] Animals were anesthetized and treated with cisplatin. Subsequently, the animals' hearing was tested to determine evoked potential threshold shifts.
Animals were treated subcutaneously with KX1-004 prior to the cisplatin-induced hearing loss.

pp60^c-src [3] = target: T1, pp60^c-src (Homo sapiens, UniProt P12931); conditions: literature value; read-out: IC50 (μM), Lit; cited from earlier work
Target sequence in this assay (P12931 whole entry, species assumed): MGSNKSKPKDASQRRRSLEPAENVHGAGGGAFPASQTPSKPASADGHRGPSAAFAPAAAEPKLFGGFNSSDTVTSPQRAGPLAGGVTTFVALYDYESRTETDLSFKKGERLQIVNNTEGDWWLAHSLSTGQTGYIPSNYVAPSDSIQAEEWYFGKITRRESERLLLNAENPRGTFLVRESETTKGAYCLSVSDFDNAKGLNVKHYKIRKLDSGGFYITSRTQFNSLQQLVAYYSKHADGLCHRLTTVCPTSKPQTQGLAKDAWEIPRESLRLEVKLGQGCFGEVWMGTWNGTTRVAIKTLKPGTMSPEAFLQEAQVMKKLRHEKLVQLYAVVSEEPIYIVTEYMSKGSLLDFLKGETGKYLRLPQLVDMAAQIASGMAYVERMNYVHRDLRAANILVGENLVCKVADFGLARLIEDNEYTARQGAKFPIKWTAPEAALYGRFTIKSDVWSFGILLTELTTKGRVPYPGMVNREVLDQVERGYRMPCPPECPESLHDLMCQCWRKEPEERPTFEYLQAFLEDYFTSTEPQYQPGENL

pp60^c-src [4] = target: T1, pp60^c-src; assay: Src inhibition (RR-SRC phosphorylation), Cellular Mimetic assay; conditions: inhibitor 100 μM; Table IX
Target sequence in this assay (P12931 whole entry): as the sequence (P12931 whole entry, species assumed) above

O=C(NCc1cccc(O)c1)c1cc2cc(F)ccc2[nH]1 [KX1-004]
average threshold shift, 0.5 kHz (Chinchillas [1]; Day 1): 3.75 | average threshold shift, 1 kHz (Chinchillas [1]; Day 1): 6.875 | average threshold shift, 2 kHz (Chinchillas [1]; Day 1): 25 | average threshold shift, 4 kHz (Chinchillas [1]; Day 1): 42 | average threshold shift, 8 kHz (Chinchillas [1]; Day 1): 22.5 | threshold shift, 0.5 kHz (Chinchillas [1]; Day 1): 0 (2×) and 5 and 10 | threshold shift, 1 kHz (Chinchillas [1]; Day 1): 2.5 and 20 and 0 and 5 | threshold shift, 2 kHz (Chinchillas [1]; Day 1): 0 and 25 and 20 and 55 | threshold shift, 4 kHz (Chinchillas [1]; Day 1): 10 and 35 and 68 and 55 | threshold shift, 8 kHz (Chinchillas [1]; Day 1): 0 and 30 and 35 and 25 | average threshold shift, 0.5 kHz (Chinchillas [1]; Day 3): 5.4 | average threshold shift, 1 kHz (Chinchillas [1]; Day 3): 6.9 | average threshold shift, 2 kHz (Chinchillas [1]; Day 3): 18 | average threshold shift, 4 kHz (Chinchillas [1]; Day 3): 27 | average threshold shift, 8 kHz (Chinchillas [1]; Day 3): 15 | threshold shift, 0.5 kHz (Chinchillas [1]; Day 3): 5 (3×) and 0 and 12 | threshold shift, 1 kHz (Chinchillas [1]; Day 3): 7.5 and 5 and 2 and 0 and 20 | threshold shift, 2 kHz (Chinchillas [1]; Day 3): 0 (2×) and 15 and 40 and 35 | threshold shift, 4 kHz (Chinchillas [1]; Day 3): 10 and 0 and 25 and 55 and 45 | threshold shift, 8 kHz (Chinchillas [1]; Day 3): 0 (2×) and 15 (2×) and 45 | average threshold shift, 0.5 kHz (Chinchillas [1]; Day 7): 8 | average threshold shift, 1 kHz (Chinchillas [1]; Day 7): 6 | average threshold shift, 2 kHz (Chinchillas [1]; Day 7): 15 | average threshold shift, 4 kHz (Chinchillas [1]; Day 7): 24 | average threshold shift, 8 kHz (Chinchillas [1]; Day 7): 18 | threshold shift, 0.5 kHz (Chinchillas [1]; Day 7): 0 and 5 and 8 and 15 and 12 | threshold shift, 1 kHz (Chinchillas [1]; Day 7): 0 (3×) and 15 (2×) | threshold shift, 2 kHz (Chinchillas [1]; Day 7): 0 (2×) and 15 and 40 and 20 | threshold shift, 4 kHz (Chinchillas [1]; Day 7): 0 and 5 and 15 and 55 and 45 | threshold shift, 8 kHz (Chinchillas [1]; Day 7): 0 (2×) and 20 and 30 and 40 | average threshold shift, 0.5 kHz (Chinchillas [1]; Day 20): 3 | average threshold shift, 1 kHz (Chinchillas [1]; Day 20): 1.25 | average threshold shift, 2 kHz (Chinchillas [1]; Day 20): 6.25 | average threshold shift, 4 kHz (Chinchillas [1]; Day 20): 9 | average threshold shift, 8 kHz (Chinchillas [1]; Day 20): 3.75 | threshold shift, 0.5 kHz (Chinchillas [1]; Day 20): 0 (2×) and 5 and 7 | threshold shift, 1 kHz (Chinchillas [1]; Day 20): 0 (3×) and 5 | threshold shift, 2 kHz (Chinchillas [1]; Day 20): 0 (2×) and 15 and 10 | threshold shift, 4 kHz (Chinchillas [1]; Day 20): 0 (2×) and 11 and 25 | threshold shift, 8 kHz (Chinchillas [1]; Day 20): −5 and 5 and 0 and 15 | average threshold shift, 0.5 kHz (Chinchillas [1]; Pretest): 26.6 | average threshold shift, 1 kHz (Chinchillas [1]; Pretest): 24.5 | average threshold shift, 2 kHz (Chinchillas [1]; Pretest): 20 | average threshold shift, 4 kHz (Chinchillas [1]; Pretest): 12.4 | average threshold shift, 8 kHz (Chinchillas [1]; Pretest): 4 | threshold shift, 0.5 kHz (Chinchillas [1]; Pretest): 30 and 35 and 25 and 20 and 23 | threshold shift, 1 kHz (Chinchillas [1]; Pretest): 22.5 and 25 (4×) | threshold shift, 2 kHz (Chinchillas [1]; Pretest): 25 (3×) and 10 and 15 | threshold shift, 4 kHz (Chinchillas [1]; Pretest): 20 and 10 and 12 and 5 and 15 | threshold shift, 8 kHz (Chinchillas [1]; Pretest): 10 (2×) and 0 (3×) | protection against the noise exposure (Chinchillas [1]; in vivo, listed as CH-65): provided protection against the noise exposure | average dB threshold shifts, treated ears versus control (Chinchillas [2]): lower | protection against cisplatin-induced hearing loss (Guinea pigs): protected against ciplatin-induced hearing loss

CCOc1cc(/C=C(\C#N)C(N)=O)cc(CSc2ccccc2)c1O [ST-638, reference compound]
IC50 (pp60^c-src [3]): 18 µM | % Inhibition at 100 μM (std. dev.) (pp60^c-src [4]): 37 (+/−5) %
